{"source": "patent US10988445B2", "about": "(AstraZeneca AB, priority 2015, dated 2021)", "data": [{"test_system": "human TH17 cells", "test": "Inhibition of IL-17 release from human TH17 cells", "format": "cell-based", "settings": "Homo sapiens, 96 h, isolated human TH17 cells, 4 days culture, IL-17A by HTRF; read-out: pIC50 IL-17 release (converted)", "excerpt": "Inhibition of IL-17 Release from Human TH17 Cells (IL-17 Release)\nThis test is designed to screen compounds for their inhibitory effect on the release of IL-17 from isolated and cultured human TH17 cells.\nPeripheral blood mononuclear cells (PBMC) were isolated from heparin treated human whole blood fromhealthy donors by density gradient centrifugation. TH17 cells (CD4+CXCR3-CCR6+) were enriched using a human TH17 Cell Enrichment Kit (Stemcell Technologies) according to the manufacturer's protocol. […] On day 4 supernatants were collected and IL-17A was measured using a Human IL-17 HTRF Assay kit (Cisbio Bioassays) according to the manufacturer's protocol. […] Results", "units": {"IC50": "nM"}, "values": [{"smiles": "CC(C)(O)CC(=O)N1Cc2cc(S(=O)(=O)CC3CC3)ccc2C1C(=O)Nc1ccc(C(O)(C(F)(F)F)C(F)(F)F)cc1", "note": "(centres unmarked) [Example 207, 5-[(Cyclopropylmethyl)sulfonyl]-N-[4-(1,1,1,3,3,3-hexafluoro-2-hydroxypropan-2-yl)phenyl]-2-(3-hydroxy-3-methylbutanoyl)-2,3-dihydro-1H-isoindole-1-carboxamide]", "IC50": 39.8}, {"smiles": "O=C(Nc1ccc(C(O)(C(F)(F)F)C(F)(F)F)cc1)C1c2ccc(S(=O)(=O)CC3CC3)cc2CN1C(=O)C1CCCO1", "note": "(centres unmarked) [Example 208, 5-[(Cyclopropylmethyl)sulfonyl]-N-[4-(1,1,1,3,3,3-hexafluoro-2-hydroxypropan-2-yl)phenyl]-2-(tetrahydrofuran-2-ylcarbonyl)-2,3-dihydro-1H-isoindole-1-carboxamide]", "IC50": 20}, {"smiles": "N#CC1(C(=O)N2Cc3cc(S(=O)(=O)CC4CC4)ccc3C2C(=O)Nc2ccc(C(O)(C(F)(F)F)C(F)(F)F)cc2)CC1", "note": "(centres unmarked) [Example 209, 2-[(1-Cyanocyclopropyl)carbonyl]-5-[(cyclopropylmethyl)sulfonyl]-N-[4-(1,1,1,3,3,3-hexafluoro-2-hydroxypropan-2-yl)phenyl]-2,3-dihydro-1H-isoindole-1-carboxamide]", "IC50": 25.1}, {"smiles": "O=C(Nc1ccc(C(O)(C(F)(F)F)C(F)(F)F)cc1)C1c2ccc(S(=O)(=O)CC3CC3)cc2CN1C(=O)C1CCOC1", "note": "(centres unmarked) [Example 210, 5-[(Cyclopropylmethyl)sulfonyl]-N-[4-(1,1,1,3,3,3-hexafluoro-2-hydroxypropan-2-yl)phenyl]-2-(tetrahydrofuran-3-ylcarbonyl)-2,3-dihydro-1H-isoindole-1-carboxamide]", "IC50": 25.1}, {"smiles": "NC(C(=O)N1Cc2cc(S(=O)(=O)CC3CC3)ccc2C1C(=O)Nc1ccc(C(O)(C(F)(F)F)C(F)(F)F)cc1)C1CC1", "note": "(centres unmarked) [Example 211, 2-[Amino(cyclopropyl)acetyl]-5-[(cyclopropylmethyl)sulfonyl]-N-[4-(1,1,1,3,3,3-hexafluoro-2-hydroxypropan-2-yl)phenyl]-2,3-dihydro-1H-isoindole-1-carboxamide]", "IC50": 200}, {"smiles": "COC1(C(=O)N2Cc3cc(S(=O)(=O)CC4CC4)ccc3C2C(=O)Nc2ccc(C(O)(C(F)(F)F)C(F)(F)F)cc2)CC1", "note": "(centres unmarked) [Example 212, 5-[(Cyclopropylmethyl)sulfonyl]-N-[4-(1,1,1,3,3,3-hexafluoro-2-hydroxypropan-2-yl)phenyl]-2-[(1-methoxycyclopropyl)carbonyl]-2,3-dihydro-1H-isoindole-1-carboxamide]", "IC50": 15.8}, {"smiles": "COC(=O)N1Cc2cc(S(=O)(=O)CC3CC3)ccc2C1C(=O)Nc1ccc(C(O)(C(F)(F)F)C(F)(F)F)cc1", "note": "(centres unmarked) [Example 213, Methyl 5-[(cyclopropylmethyl)sulfonyl]-1-{[4-(1,1,1,3,3,3-hexafluoro-2-hydroxypropan-2-yl)phenyl]carbamoyl}-1,3-dihydro-2H-isoindole-2-carboxylate]", "IC50": 7.94}, {"smiles": "O=C(Nc1ccc(C(O)(C(F)(F)F)C(F)(F)F)cc1)C1c2ccc(S(=O)(=O)CC3CC3)cc2CN1C(=O)C(F)(F)C1CC1", "note": "(centres unmarked) [Example 214, 2-[Cyclopropyl(difluoro)acetyl]-5-[(cyclopropylmethyl)sulfonyl]-N-[4-(1,1,1,3,3,3-hexafluoro-2-hydroxypropan-2-yl)phenyl]-2,3-dihydro-1H-isoindole-1-carboxamide]", "IC50": 10}, {"smiles": "CNS(=O)(=O)c1ccc2c(c1)CNC2C(=O)Nc1ccc(C(O)(C(F)(F)F)C(F)(F)F)cc1", "note": "(centres unmarked) [Example 300, N-[4-(1,1,1,3,3,3-hexafluoro-2-hydroxypropan-2-yl)phenyl]-5-(methylsulfamoyl)-2,3-dihydro-1H-isoindole-1-carboxamide]", "IC50": 25.1}, {"smiles": "CNS(=O)(=O)c1ccc2c(c1)CN(C(=O)OC)C2C(=O)Nc1ccc(C(O)(C(F)(F)F)C(F)(F)F)cc1", "note": "(centres unmarked) [Example 304, Methyl 1-{[4-(1,1,1,3,3,3-hexafluoro-2-hydroxypropan-2-yl)phenyl]carbamoyl}-5-(methylsulfamoyl)-1,3-dihydro-2H-isoindole-2-carboxylate]", "IC50": 12.6}, {"smiles": "CCOC(=O)N1Cc2cc(S(=O)(=O)NC)ccc2C1C(=O)Nc1ccc(C(O)(C(F)(F)F)C(F)(F)F)cc1", "note": "(centres unmarked) [Example 305, Ethyl 1-{[4-(1,1,1,3,3,3-hexafluoro-2-hydroxypropan-2-yl)phenyl]carbamoyl}-5-(methylsulfamoyl)-1,3-dihydro-2H-isoindole-2-carboxylate]", "IC50": 10}, {"smiles": "CNS(=O)(=O)c1ccc2c(c1)CN(C(=O)C1(OC)CC1)C2C(=O)Nc1ccc(C(O)(C(F)(F)F)C(F)(F)F)cc1", "note": "(centres unmarked) [Example 306, N-[4-(1,1,1,3,3,3-Hexafluoro-2-hydroxypropan-2-yl)phenyl]-2-[(1-methoxycyclopropyl)carbonyl]-5-(methylsulfamoyl)-2,3-dihydro-1H-isoindole-1-carboxamide]", "IC50": 20}, {"smiles": "CNS(=O)(=O)c1ccc2c(c1)CN(C(=O)COC)C2C(=O)Nc1ccc(C(O)(C(F)(F)F)C(F)(F)F)cc1", "note": "(centres unmarked) [Example 308, N-[4-(1,1,1,3,3,3-Hexafluoro-2-hydroxypropan-2-yl)phenyl]-2-(methoxyacetyl)-5-(methylsulfamoyl)-2,3-dihydro-1H-isoindole-1-carboxamide]", "IC50": 31.6}, {"smiles": "CNS(=O)(=O)c1ccc2c(c1)CN(C(=O)[C@H]1CCCO1)C2C(=O)Nc1ccc(C(O)(C(F)(F)F)C(F)(F)F)cc1", "note": "(stereo partly drawn) [Example 310, N-[4-(1,1,1,3,3,3-Hexafluoro-2-hydroxypropan-2-yl)phenyl]-5-(methylsulfamoyl)-2-[(2R)-tetrahydrofuran-2-ylcarbonyl]-2,3-dihydro-1H-isoindole-1-carboxamide]", "IC50": 31.6}, {"smiles": "CNS(=O)(=O)c1ccc2c(c1)CN(C(=O)[C@@H]1CCCO1)C2C(=O)Nc1ccc(C(O)(C(F)(F)F)C(F)(F)F)cc1", "note": "(stereo partly drawn) [Example 311, N-[4-(1,1,1,3,3,3-Hexafluoro-2-hydroxypropan-2-yl)phenyl]-5-(methylsulfamoyl)-2-[(2S)-tetrahydrofuran-2-ylcarbonyl]-2,3-dihydro-1H-isoindole-1-carboxamide]", "IC50": 31.6}, {"smiles": "CCC(OC)C(=O)N1Cc2cc(S(=O)(=O)NC)ccc2C1C(=O)Nc1ccc(C(O)(C(F)(F)F)C(F)(F)F)cc1", "note": "(centres unmarked) [Example 312, N-[4-(1,1,1,3,3,3-Hexafluoro-2-hydroxypropan-2-yl)phenyl]-2-(2-methoxybutanoyl)-5-(methylsulfamoyl)-2,3-dihydro-1H-isoindole-1-carboxamide]", "IC50": 39.8}, {"smiles": "CNS(=O)(=O)c1ccc2c(c1)CN(C(=O)CO)C2C(=O)Nc1ccc(C(O)(C(F)(F)F)C(F)(F)F)cc1", "note": "(centres unmarked) [Example 313, N-[4-(1,1,1,3,3,3-Hexafluoro-2-hydroxypropan-2-yl)phenyl]-2-(hydroxyacetyl)-5-(methylsulfamoyl)-2,3-dihydro-1H-isoindole-1-carboxamide]", "IC50": 100}, {"smiles": "CNC(=O)N1Cc2cc(S(=O)(=O)NC)ccc2C1C(=O)Nc1ccc(C(O)(C(F)(F)F)C(F)(F)F)cc1", "note": "(centres unmarked) [Example 314]", "IC50": 63.1}, {"smiles": "CS(=O)(=O)c1ccc2c(c1)CN(C(=O)Cc1ccccc1)C2C(=O)Nc1ccc(C(O)(C(F)(F)F)C(F)(F)F)cc1", "note": "(centres unmarked) [Example 402, N-[4-(1,1,1,3,3,3-Hexafluoro-2-hydroxypropan-2-yl)phenyl]-5-(methylsulfonyl)-2-(phenylacetyl)-2,3-dihydro-1H-isoindole-1-carboxamide]", "IC50": 12.6}, {"smiles": "CC(CF)C(=O)N1Cc2cc(S(C)(=O)=O)ccc2C1C(=O)Nc1ccc(C(O)(C(F)(F)F)C(F)(F)F)cc1", "note": "(centres unmarked) [Example 408, 2-(3-Fluoro-2-methylpropanoyl)-N-[4-(1,1,1,3,3,3-hexafluoro-2-hydroxypropan-2-yl)phenyl]-5-(methylsulfonyl)-2,3-dihydro-1H-isoindole-1-carboxamide]", "IC50": 12.6}, {"smiles": "CC(C)CC(=O)N1Cc2cc(S(C)(=O)=O)ccc2C1C(=O)Nc1ccc(C(O)(C(F)(F)F)C(F)(F)F)cc1", "note": "(centres unmarked) [Example 410, N-[4-(1,1,1,3,3,3-Hexafluoro-2-hydroxypropan-2-yl)phenyl]-2-(3-methylbutanoyl)-5-(methylsulfonyl)-2,3-dihydro-1H-isoindole-1-carboxamide]", "IC50": 20}, {"smiles": "CS(=O)(=O)c1ccc2c(c1)CN(C(=O)CC1CC1)C2C(=O)Nc1ccc(C(O)(C(F)(F)F)C(F)(F)F)cc1", "note": "(centres unmarked) [Example 411, 2-(Cyclopropylacetyl)-N-[4-(1,1,1,3,3,3-hexafluoro-2-hydroxypropan-2-yl)phenyl]-5-(methylsulfonyl)-2,3-dihydro-1H-isoindole-1-carboxamide]", "IC50": 25.1}, {"smiles": "CS(=O)(=O)c1ccc2c(c1)CN(C(=O)CC1(O)CC1)C2C(=O)Nc1ccc(C(O)(C(F)(F)F)C(F)(F)F)cc1", "note": "(centres unmarked) [Example 412, N-[4-(1,1,1,3,3,3-Hexafluoro-2-hydroxypropan-2-yl)phenyl]-2-[(1-hydroxycyclopropyl)acetyl]-5-(methylsulfonyl)-2,3-dihydro-1H-isoindole-1-carboxamide]", "IC50": 25.1}, {"smiles": "C[C@H](F)CC(=O)N1Cc2cc(S(C)(=O)=O)ccc2C1C(=O)Nc1ccc(C(O)(C(F)(F)F)C(F)(F)F)cc1", "note": "(stereo partly drawn) [Example 413, 2-[(3S)-3-Fluorobutanoyl]-N-[4-(1,1,1,3,3,3-hexafluoro-2-hydroxypropan-2-yl)phenyl]-5-(methylsulfonyl)-2,3-dihydro-1H-isoindole-1-carboxamide]", "IC50": 31.6}, {"smiles": "CS(=O)(=O)c1ccc2c(c1)CN(C(=O)CCF)C2C(=O)Nc1ccc(C(O)(C(F)(F)F)C(F)(F)F)cc1", "note": "(centres unmarked) [Example 415, 2-(3-Fluoropropanoyl)-N-[4-(1,1,1,3,3,3-hexafluoro-2-hydroxypropan-2-yl)phenyl]-5-(methylsulfonyl)-2,3-dihydro-1H-isoindole-1-carboxamide]", "IC50": 31.6}, {"smiles": "CCOC1(C(=O)N2Cc3cc(S(C)(=O)=O)ccc3C2C(=O)Nc2ccc(C(O)(C(F)(F)F)C(F)(F)F)cc2)CC1", "note": "(centres unmarked) [Example 416, 2-[(1-Ethoxycyclopropyl)carbonyl]-N-[4-(1,1,1,3,3,3-hexafluoro-2-hydroxypropan-2-yl)phenyl]-5-(methylsulfonyl)-2,3-dihydro-1H-isoindole-1-carboxamide]", "IC50": 31.6}]}]}
